Reference: ChEMBL document CHEMBL1122521, “Nucleic acid related compounds. 47. Synthesis and biological activities of pyrimidine and purine "acyclic" nucleoside analogues” (J Med Chem, 1984)
Converted amounts (≈) assume the structure as drawn.

Tests used:
Assay type in all cases: functional
[1] = Inhibitory concentration required to reduce incorporation of 2-deoxyuridine (dUrd) into DNA of Primary Rabbit kidney (PRK) cell cultures; conditions: Oryctolagus cuniculus, read-out: ID50 (the source's name)
Human alphaherpesvirus 2 = experiment: Concentration required to reduce cytopathogenicity of Herpes simplex virus type 2 (strain G) by 50% in primary rabbit kidney (PRK) cells
L1210 [2] = experiment: Inhibitory concentration required to reduce cell growth of Murine Leukemia L1210 cells; conditions: Mus musculus, read-out: ID50 (the source's name)
L1210 [3] = experiment: Inhibitory concentration required to reduce [3H-methyl]-dThd C incorporation into cellular DNA by 50% in Murine Leukemia L1210 cells; conditions: Mus musculus, read-out: ID50 (the source's name)
Human alphaherpesvirus 1 = experiment: Concentration required to reduce cytopathogenicity of Herpes simplex virus type 1 (strain KOS) by 50% in primary rabbit kidney (PRK) cells
[4] = Inhibitory concentration required to reduce incorporation of 2-deoxythymidine (dThd) into DNA of Primary Rabbit kidney (PRK) cell cultures; conditions: Oryctolagus cuniculus, read-out: ID50 (the source's name)
L1210 [5] = experiment: Inhibitory concentration required to reduce [3H1',2']dUrd incorporation into cellular DNA by 50% in Murine Leukemia L1210 cells; conditions: Mus musculus, read-out: ID50 (the source's name)
[6] = Ratio of ID50 for dThd or dUrd incorporation to ID50 for HSV-1, HSV-2 or VV(whatever was lowest)
[7] = system: Vesicular stomatitis virus; experiment: Concentration required to reduce cytopathogenicity of Vesicular stomatitis virus by 50% in primary rabbit kidney (PRK) cells
L1210 [8] = experiment: Inhibitory concentration required to reduce [3H1',2']dUrd incorporation into cellular DNA by 50 %; conditions: Mus musculus, read-out: ID50 (the source's name)

Row | Structure (SMILES) | IC50 [1] [µg/mL] | ID50 (Human alphaherpesvirus 2) [µg/mL] | IC50 (L1210 [2]) [µg/mL] | IC50 (L1210 [3]) [µg/mL] | ID50 (Human alphaherpesvirus 1) [µg/mL] | IC50 [4] [µg/mL] | IC50 (L1210 [5]) [µg/mL] | Antiviral index [6] | ID50 [7] [µg/mL] | IC50 (L1210 [8]) [µg/mL]
1 | O=c1cc(O)ccn1COCCO | > 400 | >400 | > 1000 | > 1000 | >400 | > 400 | > 1000 |  |  | 
2 | Cc1nc2c(O)nc(N)nc2n1COCCO | > 400 | 0.5 (≈ 2.09 µM) | 323 (≈ 1350 µM) | > 500 | 0.5 (≈ 2.09 µM) | > 400 | > 500 | > 800 | >400 | 
3 | CN(C)c1ncnc2c1ncn2COCCO | > 350 | >400 | > 500 | > 500 | >400 | 400 (≈ 1690 µM) | > 500 | < 0.9 |  | 
4 | Nc1nc2c(nc(I)n2COCCO)c(=O)[nH]1 | ≥ 250 | 0.4 (≈ 1.14 µM) | 39 (≈ 111 µM) | > 1000 | 0.4 (≈ 1.14 µM) | ≥ 350 |  | 625 | >400 | > 1000
5 | O=c1[nH]c(=O)n(COCCO)cc1I | > 400 | >400 | > 1000 | > 1000 | >400 | > 400 | > 1000 |  |  | 
6 | Nc1nc(O)c2nc(N3CCCCC3)n(COCCO)c2n1 | 333 (≈ 1080 µM) | 150 (≈ 486 µM) | > 500 | > 500 | 70 (≈ 227 µM) | 250 (≈ 811 µM) | > 500 | 3.5 | >400 | 
7 | CC(=O)OCCOCn1cnc2c(Cl)ncnc21 | 62 (≈ 229 µM) | 70 (≈ 259 µM) | 44 (≈ 163 µM) | 475 (≈ 1750 µM) | 70 (≈ 259 µM) | 60 (≈ 222 µM) | 233 (≈ 861 µM) | 3 | >400 | 
8 | O=c1[nH]c(=O)n(COCCO)cc1[N+](=O)[O-] | > 400 | >400 | 447 (≈ 1930 µM) | > 1000 | >400 | > 400 | > 1000 |  |  | 
9 | O=c1[nH]c(=O)n(COCCO)cc1Br | > 400 | >400 | > 1000 | > 1000 | >400 | > 400 | > 1000 |  |  | 
10 | Cc1cn(COCCO)c(=O)[nH]c1=O | > 400 | >400 | > 1000 | > 1000 | >400 | > 400 | > 1000 |  |  | 
11 | CC(=O)OCCOCn1cnc2c(Cl)nc(Cl)nc21 | 2 (≈ 6.55 µM) | >10 | 12 (≈ 39.3 µM) | 412 (≈ 1350 µM) | 2 (≈ 6.55 µM) | 10 (≈ 32.8 µM) | 98 (≈ 321 µM) | 1 |  | 
12 | Nc1nc2c(nc(Br)n2COCCO)c(=O)[nH]1 | 225 (≈ 740 µM) | 0.5 (≈ 1.64 µM) | 355 (≈ 1170 µM) | > 500 | 0.5 (≈ 1.64 µM) | 340 (≈ 1120 µM) |  | 450 | >400 | > 500
13 | Nc1ccn(COCCO)c(=O)n1 | > 400 | 100 (≈ 540 µM) | 675 (≈ 3650 µM) | > 1000 | 70 (≈ 378 µM) | > 400 | > 1000 | > 5 | >400 | 
14 | Nc1ncnc2c1ncn2COCCO | 22 (≈ 105 µM) | 10 (≈ 47.8 µM) | 19 (≈ 90.8 µM) | > 1000 | 10 (≈ 47.8 µM) | 49 (≈ 234 µM) | > 1000 | 2.2 | >400 | 
15 | O=c1ccn(COCCO)c(=O)[nH]1 | > 400 | >400 | > 1000 | > 1000 | >400 | > 400 | > 1000 |  |  | 
16 | Nc1nc(=O)n(COCCO)cc1[N+](=O)[O-] | > 400 | >400 | 71 (≈ 308 µM) | > 500 | >400 | > 400 | 374 (≈ 1620 µM) |  |  | 
17 | O=c1[nH]c(=O)n(COCCO)cc1Cl | > 400 | >400 | > 1000 | > 1000 | >400 | > 400 | > 1000 |  |  | 
18 | Nc1nc2c(nc(N)n2COCCO)c(=O)[nH]1 | 200 (≈ 833 µM) | 0.3 (≈ 1.25 µM) | > 500 | 500 (≈ 2080 µM) | 0.7 (≈ 2.91 µM) | 290 (≈ 1210 µM) |  | 667 | >100 | 500 (≈ 2080 µM)
19 | O=c1[nH]c(=O)n(COCCO)cc1/C=C/Br | > 400 | >400 | > 1000 | > 1000 | >400 | > 200 | > 1000 |  |  | 
20 | CC(=O)OCCOCn1cc(/C=C/Br)c(=O)[nH]c1=O | > 400 | >400 | > 1000 | > 1000 | >400 | > 200 | > 1000 |  |  | 
21 | O=c1[nH]c(=O)n([C@H]2C[C@H](O)[C@@H](CO)O2)cc1/C=C/Br [BRIVUDINE] | 27 (≈ 81 µM) | 2 (≈ 6 µM) |  |  | 0.007 (≈ 0.021 µM) | 73 (≈ 219 µM) |  | 3860 | >400 | 
22 | Nc1nc(=O)ccn1COCCO | > 400 | >400 | > 500 | > 500 | >400 | > 400 | > 500 |  |  | 
23 | CN(C)c1nc2c(=O)[nH]c(N)nc2n1COCCO | > 400 | 250 (≈ 932 µM) | > 500 | > 500 | 30 (≈ 112 µM) | > 400 |  | 13 | >400 | > 500
24 | CNc1nc2c(=O)[nH]c(N)nc2n1COCCO | > 400 | 3 (≈ 11.8 µM) | > 500 | > 500 | 7 (≈ 27.5 µM) | > 400 |  | 133 | >400 | > 500
25 | O=c1[nH]c(=O)n(COCCO)cc1F | > 400 | >400 | > 1000 | > 1000 | >400 | > 400 | > 1000 |  |  | 
